The values below come from patent US20260091015A1, “TREATING IRON DEFICIENCY WITH FERRIC CARBOXYMALTOSE” (PHARMACOSMOS HOLDING A/S, priority 2018, published 2026).

The nature of series [1]: Incidence of hypophosphatemia / s-phosphate in randomized open-label trials IDA-04 and IDA-05. The class given is in vivo, human. The method, then: Two prospective randomized, open-label, comparative trials were performed comparing the incidence of hypophosphatemia in relation to treatment with iron isomaltoside (“IIM”, tradename Monofer®, Monoferric®) and ferric carboxymaltose (“FCM”, trade name Injectafer, Ferinject) in adult human subjects with iron deficiency anaemia.
The trial was a randomized, open-label, comparative trial. Subjects with Iron Deficiency Anaemia (IDA) were randomized 1:1 to one treatment course of one of the following treatments: • Group A: iron isomaltoside 1000 (Monofer®, Pharmacosmos, Holbok, Denmark, termed iron isomaltoside in the following), 1000 mg at baseline • Group B: ferric carboxymaltose (Ferinject®/Injectafer®, Vifor Inc, Switzerland), 750 mg at baseline and day 7, cumulative dose: 1500 mg
The primary endpoint was the incidence of hypophosphatemia (defined as s-phosphate <2 mg/dL) at any time from baseline to day 35. […]
The following safety laboratory assessments were analysed: • S-phosphate: inorganic phosphorous forms an ammonium phosphomolybdate complex having the formula (NH4)3[PO4](MoO3)12 with ammonium molybdate in the presence of sulfuric acid. The complex was determined photometrically in the ultraviolet region (340 nm) of the spectrum using the Roche Modular and Cobas Analyzer. • iFGF23 and cFGF23: the human intact FGF23 was measured by the 2nd generation Elisa kit manufactured by Immonotropics, Inc, San Clemente, CA. […] The human C-terminal FGF23 was measured by the Elisa kit manufactured by Immonotropics, Inc, San Clemente, CA. […] After evaporation under nitrogen, the residue was reconstituted and analyzed using Liquid Chromatography (LC) with Tandem Mass Spectrometric detection (MS/MS). […]

Series [2] in a line: Respiratory muscles strength (MIP and MEP), trials IDA-04/IDA-05. As to conditions: relative to the comparator IV iron treatment. It is filed as in vivo, human. Here is the method:
The trial was a randomized, open-label, comparative trial. Subjects with Iron Deficiency Anaemia (IDA) were randomized 1:1 to one treatment course of one of the following treatments: • Group A: iron isomaltoside 1000 (Monofer®, Pharmacosmos, Holbok, Denmark, termed iron isomaltoside in the following), 1000 mg at baseline • Group B: ferric carboxymaltose (Ferinject®/Injectafer®, Vifor Inc, Switzerland), 750 mg at baseline and day 7, cumulative dose: 1500 mg […]
The measurements of MIP and MEP provided a non-invasive clinical method for evaluating the strength of respiratory muscles, and it was the most widely used test to assess muscle pressures [ATS/ERS statement, 2002]. […] MIP and MEP were measured by MicroRPM (CareFusion Germany 234 GmbH, Hoechberg, Germany). […]

Setting [3] is: FCM 750 mg at baseline and day 7 vs JIM 1000 mg at baseline, subjects with IDA, baseline to day 35.

As to ferric carboxymaltose [FCM], in series [1] (setting [3]), the “rate of hypophosphatemia, moderate to severe form with serum phosphate below 2 mg/dL” value is on record as “significantly higher” and the “rate of hypophosphatemia, severe form of serum phosphate at or below 1.0 mg/dL” value is given as “significantly higher”. Further, in series [1] (after FCM treatment), the serum phosphate entry is “decrease”. In addition, the “respiratory muscle strength (maximal inspiratory and/or expiratory pressure)” value in series [2] was “reduced”.
